Measurements as given in patent publication US20240254138A1, “TRICYCLIC PYRIMIDINES AS CYCLIN-DEPENDENT KINASE 7 (CDK7) INHIBITORS” (JANSSEN PHARMACEUTICA NV, priority 2021, published 2024).
Like-named read-outs stand apart in the source and are kept apart here.

What was measured:
[1] = test system: RNA Polymerase II Serine 5 phosphorylation (Rpb1 CTD, downstream substrate of CDK7) in A549 cells; assay: Imaging-based cellular RNA PolII Ser5 phosphorylation assay in A549 cells; assay type: cell-based, human; conditions: wild-type CDK7, RNA PolII Ser5 phosphorylation, averaged over all measurements; for IC50: Homo sapiens, A549, A549 cells, read-out: CDK7_A549 Wild-type CDK7 (pIC50) (converted); for CDK7_A549 Wild-type CDK7 (pIC50): A549 cells
How it was run: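 IC50 derived by fitting % control (DMSO high, 10 μM reference low) against concentration, with Hill slope. Readout: high-content imaging of phospho-Ser5 Rpb1 CTD antibody staining in fixed, permeabilized A549 cells exposed to compound 3 h after 20 h culture in 1% FBS DMEM.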

[2] = test system: RNA Polymerase II Serine 5 phosphorylation in A549 cells overexpressing CDK7-mutant (C312S); assay: Imaging-based cellular RNA PolII Ser5 phosphorylation assay in A549 cells overexpressing CDK7-mutant (C312S); assay type: cell-based, human; conditions: RNA PolII Ser5 phosphorylation, averaged over all measurements; for IC50: Homo sapiens, A549, A549 cells overexpressing CDK7-mutant (C312S), read-out: CDK7_A549 mutant hCDK7(pIC50) (converted); for CDK7_A549 mutant hCDK7(pIC50): A549 cells overexpressing CDK7-mutant (C312S)
How it was run: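 Readout was automated imaging of anti-phospho-Ser5 Rpb1 CTD immunofluorescence, with IC50 fitted to % control versus concentration. Cells were A549 stably overexpressing non-covalently targetable CDK7 C312S alongside wild-type, exposed to compound 3 h at 37 °C. DMSO and 10 μM reference compound served as controls.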

[3] = target: CDK7/cyclinH/MAT1 trimeric complex (Homo sapiens, UniProt P50613); assay: In vitro CDK7 assay, potency of irreversible covalent inhibitors (kinact/KI), coupled PK/LDH ADP readout at 340 nm; conditions: for CDK7 (kinact/KI, M^−1*s^−1): potency of irreversible covalent inhibitors
Chain of CDK7/cyclinH/MAT1 trimeric complex (P50613 whole entry): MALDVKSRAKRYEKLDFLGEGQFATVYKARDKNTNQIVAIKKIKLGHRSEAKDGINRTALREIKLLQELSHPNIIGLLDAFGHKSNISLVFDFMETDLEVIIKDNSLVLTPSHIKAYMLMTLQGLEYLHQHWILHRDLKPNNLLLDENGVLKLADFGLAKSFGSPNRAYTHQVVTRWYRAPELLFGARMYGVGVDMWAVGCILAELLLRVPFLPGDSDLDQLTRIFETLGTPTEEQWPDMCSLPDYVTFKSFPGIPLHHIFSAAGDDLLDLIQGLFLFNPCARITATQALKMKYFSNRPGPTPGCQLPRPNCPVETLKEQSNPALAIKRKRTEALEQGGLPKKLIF
Chain of CDK7/cyclinH/MAT1 trimeric complex (P51946 whole entry partner): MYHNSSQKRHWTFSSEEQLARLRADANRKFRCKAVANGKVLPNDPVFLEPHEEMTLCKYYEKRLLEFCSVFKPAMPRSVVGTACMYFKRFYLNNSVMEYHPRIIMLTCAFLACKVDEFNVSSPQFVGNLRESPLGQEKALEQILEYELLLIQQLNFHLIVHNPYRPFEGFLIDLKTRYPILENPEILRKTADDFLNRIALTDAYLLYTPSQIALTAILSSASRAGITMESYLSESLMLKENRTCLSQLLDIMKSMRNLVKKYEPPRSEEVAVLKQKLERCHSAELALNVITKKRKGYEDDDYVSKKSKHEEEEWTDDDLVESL
Chain of CDK7/cyclinH/MAT1 trimeric complex (P51948 whole entry partner): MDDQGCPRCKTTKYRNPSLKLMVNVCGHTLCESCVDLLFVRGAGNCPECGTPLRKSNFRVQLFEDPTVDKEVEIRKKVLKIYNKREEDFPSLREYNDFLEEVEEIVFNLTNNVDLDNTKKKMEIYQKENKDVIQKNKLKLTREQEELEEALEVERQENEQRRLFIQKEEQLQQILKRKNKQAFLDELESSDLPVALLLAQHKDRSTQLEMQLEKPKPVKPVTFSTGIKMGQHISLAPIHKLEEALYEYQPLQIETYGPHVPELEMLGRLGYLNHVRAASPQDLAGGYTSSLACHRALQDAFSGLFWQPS

[4] = read-out: CDK7 (20 nM enz.) (kobs/[I], M^−1*s^−1), 20 nM enzyme
[5] = read-out: CDK7 (20 nM enz.) (kinact/KI, M^−1*s^−1), 20 nM enzyme
[6] = CDK7 (20 nM enz.) (KI, μM), 20 nM enzyme
[7] = read-out: CDK7 (20 nM enz.) (kinact, s^−1), 20 nM enzyme
[8] = CDK7 (KI(μM)), […], 1 mM ATP, room temperature, averaged values over all measurements
[9] = read-out: CDK7 (kinact, s^−1), kinact = maximal rate of inactivation, 1 mM ATP, room temperature, averaged values over all measurements
[10] = read-out: CDK7 (kinact/KI, M^−1*s^−1), potency of irreversible covalent inhibitors, 1 mM ATP, room temperature, averaged values over all measurements
[11] = 1 mM ATP, room temperature, averaged values over all measurements

Row | SMILES | IC50 [1] | IC50 [2] | kinact/KI [3, 5] | Ki [3, 6] | kinact [3, 7] | kinact/KI [3, 10] | other results
1 | C=CC(=O)N1CC[C@H](N2CC(c3cc4c(c(C#N)n3)O[C@H](C)c3c(N5CCOCC5)ccnc3N4)C2)C1 (single isomer, unassigned) [Compound 507] | 110 nM | 8130 nM |  |  |  |  | kinact/KI [3, 4]: 389 M⁻¹ s⁻¹
2 | C=CC(=O)N1CC[C@H](N2CC(c3cc4c(c(C#N)n3)O[C@@H](C)c3c(N5CCOCC5)ccnc3N4)C2)C1 (single isomer, unassigned) [Compound 508] | 2880 nM | > 10000 nM | 6.21 M⁻¹ s⁻¹ |  |  |  | 
3 | C=CC(=O)N1CC[C@@H](N2CC(c3cc4c(c(C#N)n3)O[C@@H](C)c3c(N5CCOCC5)ccnc3N4)C2)C1 (single isomer, unassigned) [Compound 509] | 2400 nM | > 10000 nM | 14.5 M⁻¹ s⁻¹ | 1.28 µM | 1.85e-05 s⁻¹ |  | 
4 | CC#CC(=O)N1CC(N2CCC(c3cc4c(c(C)n3)O[C@H](C)c3c(N5CCOCC5)ccnc3N4)CC2)C1 (single isomer, unassigned) [Compound 510] |  |  |  | 0.052 µM |  |  | CDK7_A549 Wild-type CDK7 (pIC50) [1]: 6.72; CDK7_A549 mutant hCDK7(pIC50) [2]: <5; CDK7 (20 nM enz.) (kinact, s^−1) ([3]; 20 nM enzyme): 3.092e-05 s⁻¹; CDK7 (20 nM enz.) (kinact/KI, M^−1*s^−1) ([3]; 20 nM enzyme): 594.812 M⁻¹ s⁻¹
5 | CC#CC(=O)N1CCC(N2CC(c3cc4c(c(C#N)n3)O[C@H](C)c3c(C5CCOCC5)ccnc3N4)C2)CC1 (single isomer, unassigned) [Compound 517] | 3020 nM | > 10000 nM | 14.3 M⁻¹ s⁻¹ | 2.91 µM | 4.23e-05 s⁻¹ |  | 
6 | CC#CC(=O)N1CCC(N2CC(c3cc4c(c(C#N)n3)O[C@@H](C)c3c(C5CCOCC5)ccnc3N4)C2)CC1 (single isomer, unassigned) [Compound 518] | 64.6 nM | 4070 nM | 4340 M⁻¹ s⁻¹ | 0.0075 µM | 3.26e-05 s⁻¹ |  | 
7 | CC#CC(=O)N1CC(N2CCC(c3cc4c(c(C#N)n3)O[C@@H](C)c3c(N5CCOCC5)ccnc3N4)CC2)C1 (single isomer, unassigned) [Compound 520] | 158 nM | > 10000 nM |  | 0.00977 µM | 2.91e-05 s⁻¹ |  | CDK7 (20 nM enz.) (kinact/KI, M^−1*s^−1) ([3]; 20 nM enzyme): 2981 M⁻¹ s⁻¹
8 | CC#CC(=O)N1CC(N2CC[C@@H](c3cc4c(c(C)n3)O[C@@H](C)c3c(N5CCOCC5)ccnc3N4)N(C)CC2)C1 (single isomer, unassigned) [Compound 521] | 5250 nM | > 10000 nM | 15.9 M⁻¹ s⁻¹ | 1.71 µM | 2.72e-05 s⁻¹ |  | 
9 | CC#CC(=O)N1CC(N2CC[C@H](c3cc4c(c(C)n3)O[C@H](C)c3c(N5CCOCC5)ccnc3N4)N(C)CC2)C1 (single isomer, unassigned) [Compound 525] | 141 nM | 5370 nM | 1320 M⁻¹ s⁻¹ | 0.0109 µM | 1.44e-05 s⁻¹ |  | 
10 | CC#CC(=O)N1CC(N2CC[C@@H](c3cc4c(c(C)n3)O[C@H](C)c3c(N5CCOCC5)ccnc3N4)N(C)CC2)C1 (single isomer, unassigned) [Compound 527] | 9770 nM | > 10000 nM | 8.74 M⁻¹ s⁻¹ | 1.81 µM | 1.58e-05 s⁻¹ |  | 
11 | CC#CC(=O)N1CC(N2CC[C@H](c3cc4c(c(C)n3)O[C@@H](C)c3c(N5CCOCC5)ccnc3N4)N(C)CC2)C1 (single isomer, unassigned) [Compound 528] | 603 nM | > 10000 nM | 174 M⁻¹ s⁻¹ | 0.0976 µM | 1.7e-05 s⁻¹ |  | 
12 | CC#CC(=O)N1CC(N2CCC(c3cc4c(c(C)n3)O[C@H](C)c3c(-c5cnn(C)c5)ccnc3N4)CC2)C1 (single isomer, unassigned) [Compound 541] | 155 nM | > 10000 nM | 2710 M⁻¹ s⁻¹ | 0.0182 µM | 4.94e-05 s⁻¹ |  | 
13 | CC#CC(=O)N1CC(N2CCC(c3cc4c(c(C#N)n3)O[C@@H](C)c3c(N5CCOCC5)ccnc3N4)CC2)C1 (single isomer, unassigned) [Compound 542] |  |  |  | 0.0082 µM |  |  | CDK7_A549 Wild-type CDK7 (pIC50) [1]: 6.62; CDK7_A549 mutant hCDK7(pIC50) [2]: <5; CDK7 (20 nM enz.) (kinact, s^−1) ([3]; 20 nM enzyme): 0.0000556 s⁻¹; CDK7 (20 nM enz.) (kinact/KI, M^−1*s^−1) ([3]; 20 nM enzyme): 6751 M⁻¹ s⁻¹
14 | C=CC(=O)Nc1ccc(C(=O)Nc2ccc3c(c2)Nc2ncc(C)c(C4CCOCC4)c2CO3)cc1 [Compound 2] | 794 nM | > 10000 nM |  |  |  | 609 M⁻¹ s⁻¹ | Ki [3, 8]: 0.129 µM; kinact [3, 9]: 7.86e-05 s⁻¹
15 | C=CC(=O)N1CC(N2CCC(c3ccc4c(c3)Nc3nccc(C5CCOCC5)c3CO4)CC2)C1 [Compound 3] |  | > 10000 nM |  |  |  |  | CDK7_A549 Wild-type CDK7 (pIC50) [1]: 6.89; CDK7 (kinact/KI, M^−1*s^−1) [3, 11]: 2787.5 M⁻¹ s⁻¹
16 | C=CC(=O)N1CC(N2CCC(c3ccc4c(c3)Nc3nccc(N5CCOCC5)c3CO4)CC2)C1 [Compound 4] |  |  |  |  |  |  | CDK7_A549 Wild-type CDK7 (pIC50) [1]: 6.84; CDK7_A549 mutant hCDK7(pIC50) [2]: <5; Ki [3, 8]: 0.0617 µM; CDK7 (kinact/KI, M^−1*s^−1) [3, 11]: 3147.06 M⁻¹ s⁻¹; kinact [3, 9]: 0.000303 s⁻¹
17 | C#CCOc1cc(C(=O)Nc2ccc3c(c2)Nc2nccc(C4CCOCC4)c2CO3)ccc1NC(=O)C=C [Compound 8] | 120 nM | > 10000 nM | 1810 M⁻¹ s⁻¹ | 0.0321 µM | 5.8e-05 s⁻¹ | 1530 M⁻¹ s⁻¹ | 
18 | C=CC(=O)N1CC(N2CCC(c3ccc4c(c3)Nc3nccc(N5CCS(=O)(=O)CC5)c3CO4)CC2)C1 [Compound 9] | 447 nM | > 10000 nM |  |  |  | 486 M⁻¹ s⁻¹ | 
19 | C=CC(=O)N1CC(N2CCC(c3ccc4c(c3)Nc3nccc(C5=CCOCC5)c3CO4)CC2)C1 [Compound 10] | 204 nM | > 10000 nM |  |  |  | 1570 M⁻¹ s⁻¹ | Ki [3, 8]: 0.0555 µM; kinact [3, 9]: 0.000107 s⁻¹
20 | C=CC(=O)N1CC(N2CCC(c3ccc4c(c3)Nc3nccc(N5C[C@H]6CC[C@@H](C5)O6)c3CO4)CC2)C1 [Compound 11] | 87.1 nM | > 10000 nM |  |  |  | 688 M⁻¹ s⁻¹ | 
21 | C=CC(=O)N1CC(N2CCC(c3ccc4c(c3)Nc3nccc(N5CC=C(CCO)CC5)c3CO4)CC2)C1 [Compound 12] | 537 nM | > 10000 nM |  |  |  | 296 M⁻¹ s⁻¹ | 
22 | C=CC(=O)N1CC(N2CCC(c3ccc4c(c3)Nc3ncc(Cl)c(N5CCOCC5)c3CO4)CC2)C1 [Compound 13] | 135 nM | > 10000 nM |  |  |  | 1040 M⁻¹ s⁻¹ | 
23 | C=CC(=O)Nc1ccc(CNc2ccc3c(c2)Nc2nccc(N4CCOCC4)c2CO3)cn1 [Compound 16] | 45.7 nM | 3800 nM | 1160 M⁻¹ s⁻¹ | 0.0286 µM | 3.3e-05 s⁻¹ | 402 M⁻¹ s⁻¹ | 
24 | C#CCN(C(=O)C=C)c1ccc(C(=O)Nc2ccc3c(c2)Nc2nccc(C4CCOCC4)c2CO3)cc1 [Compound 17] | 126 nM | > 10000 nM |  |  |  |  | kinact/KI [3, 4]: 1470 M⁻¹ s⁻¹
25 | C#Cc1cc(C(=O)Nc2ccc3c(c2)Nc2nccc(C4CCOCC4)c2CO3)ccc1NC(=O)C=C [Compound 18] | 100 nM | 4270 nM |  |  |  |  | kinact/KI [3, 4]: 1070 M⁻¹ s⁻¹
